In US7034000B2, “Peptides derived from the human amyloid precursor protein” (The Brigham and Women's Hospital, Inc., priority 2000, dated 2006):

Experiment: ferrozine based iron oxidation (ferroxidase) assay
Assay type: biochemical
Settings: for ferroxidase activity when synthesized as a distinct peptide: statement in summary, no values; for Vmax of iron oxidation: first set, 6.5 nM of protein; for Vmax, rate of iron oxidation: another set of ferrozine-based assays, 0.5 μM each
Protocol: Computer-based alignments of APP and H-ferritin were run using the Gap and Bestfit sequence alignment programs for Vax software. […] Bovine serum albumin (BSA) served as a negative control for these experiments since 6.5 μM BSA provided a 5-fold lower apparent rate of iron oxidation (an apparent reaction rate of 0.1 μM iron oxidized per minute). It was concluded that purified, secreted APP ectodomain specifically catalyzes the oxidation of 100-fold more iron per minute than the amount of APP present. This is an indication that APP harbors one or more sites for catalytic iron oxidation.
Using synthetic peptides, it was confirmed that sequences overlapping the newly identified FOX-1 domain in APP function as intrinsic ferroxidases. A peptide designated as “A2” (coding for residues 316 to 337 in APP-695)was tested. […] Ceruloplasmin (Cp) was used as a positive control since Cp is a known copper-dependent iron oxidase. […] The standard error for each of these reactions was less than 5%.
The known RERMS domain of APP (319 to 335 with respect to APP-695) is a cytoprotective region of APP and overlaps the A2 to peptide described above. […] The 827 sequence is HRBRMSQVMREWEEAERQAKNL (SEQ ID NO: 6), encoding 9 amino terminal amino acids that overlap with the RERMS peptide. In addition, 827 has 13 unique amino acids that align with the ferritin iron oxidase domain, as present in FOX-1. […] It was concluded that peptides spanning sequences from 316 to 346 of APP-695 can be used as agents to protect cells from iron catalyzed cellular damage.

DGDEVEEEAEPYEEATERTTSIA (listed as Homo sapiens) [FOX-2, peptide corresponding to the complete FOX-2 domain, between amino acids 250 and 273 in APP-695]
ferroxidase activity when synthesized as a distinct peptide: has ferroxidase activity

REWEEAERQAKNLPKADKKAVIQH (listed as Homo sapiens) [FOX-1]
ferroxidase activity when synthesized as a distinct peptide: has ferroxidase activity

APP: purified, secreted human amyloid precursor protein ectodomain
Vmax of iron oxidation: 0.5 µM/min
iron oxidized per minute relative to the amount of APP present (purified, secreted APP ectodomain): 100 fold

HRERMSQVMREWEEAERQAKNL (listed as Homo sapiens) [827 peptide, first 13 N-terminal amino acids of FOX-1 fused to nine amino acids from the RERMS domain of APP-695 (327–348)]
Vmax, rate of iron oxidation: 7.36 µM/min

A2 peptide: synthetic peptide coding for residues 316 to 337 in APP-695, overlaps RERMS domain (CAPFFYGGCGGNRNNFDTEEYC; APP695; UniProt P05067 316-337, looked up, fragment)
rate of iron oxidation compared with BSA or RNase-A (0.5 μM): significantly higher
Vmax, rate of iron oxidation: 2.78 µM/min
iron oxidase activity Vmax (second set, 0.5 μM peptide): 2.96 μM/min/0.5 μM peptide

B1: Ceruloplasmin: known copper-dependent iron oxidase (ferroxidase), positive control (protein, UniProt P00450 20-1065, looked up)
Ceruloplasmin: KEKHYYIGIIETTWDYASDHGEKKLISVDTEHSNIYLQNGPDRIGRLYKKALYLQYTDETFRTTIEKPVWLGFLGPIIKAETGDKVYVHLKNLASRPYTFHSHGITYYKEHEGAIYPDNTTDFQRADDKVYPGEQYTYMLLATEEQSPGEGDGNCVTRIYHSHIDAPKDIASGLIGPLIICKKDSLDKEKEKHIDREFVVMFSVVDENFSWYLEDNIKTYCSEPEKVDKDNEDFQESNRMYSVNGYTFGSLPGLSMCAEDRVKWYLFGMGNEVDVHAAFFHGQALTNKNYRIDTINLFPATLFDAYMVAQNPGEWMLSCQNLNHLKAGLQAFFQVQECNKSSSKDNIRGKHVRHYYIAAEEIIWNYAPSGIDIFTKENLTAPGSDSAVFFEQGTTRIGGSYKKLVYREYTDASFTNRKERGPEEEHLGILGPVIWAEVGDTIRVTFHNKGAYPLSIEPIGVRFNKNNEGTYYSPNYNPQSRSVPPSASHVAPTETFTYEWTVPKEVGPTNADPVCLAKMYYSAVEPTKDIFTGLIGPMKICKKGSLHANGRQKDVDKEFYLFPTVFDENESLLLEDNIRMFTTAPDQVDKEDEDFQESNKMHSMNGFMYGNQPGLTMCKGDSVVWYLFSAGNEADVHGIYFSGNTYLWRGERRDTANLFPQTSLTLHMWPDTEGTFNVECLTTDHYTGGMKQKYTVNQCRRQSEDSTFYLGERTYYIAAVEVEWDYSPQREWEKELHHLQEQNVSNAFLDKGEFYIGSKYKKVVYRQYTDSTFRVPVERKAEEEHLGILGPQLHADVGDKVKIIFKNMATRPYSIHAHGVQTESSTVTPTLPGETLTYVWKIPERSGAGTEDSACIPWAYYSTVDQVKDLYSGLIGPLIVCRRPYLKVFNPRRKLEFALLFLVFDENESWYLDDNIKTYSDHPEKVNKDDEEFIESNKMHAINGRMFGNLQGLTMHVGDEVNWYLMGMGNEIDLHTVHFHGHSFQYKHRGVYSSDVFDIFPGTYQTLEMFPRTPGIWLLHCHVTDHIHAGMETTYTVLQNEDTKSG
Vmax, rate of iron oxidation: 6.41 µM/min
Vmax of iron oxidation: 5 µM/min
reaction velocity (Vmax) (second set, 0.5 μM protein, n=6, positive control): 4.2 µM iron/min/0.5 µM protein

B2: RNase-A: negative control protein (protein, UniProt P61823 27-150, looked up)
Ribonuclease pancreatic: KETAAAKFERQHMDSSTSAASSSNYCNQMMKSRNLTKDRCKPVNTFVHESLADVQAVCSQKNVACKNGQTNCYQSYSTMSITDCRETGSSKYPNCAYKTTQANKHIIVACEGNPYVPVHFDASV
apparent Vmax (second set, 0.5 μM, n=6, negative control): 1.96 µM iron/min/0.5 µM peptide

B3: RNaseTI: control protein in the second set of ferrozine-based assays (protein, UniProt P00651 27-130, looked up)
Guanyl-specific ribonuclease …: ACDYTCGSNCYSSSDVSTAQAAGYQLHEDGETVGSNSYPHKYNNYEGFDFSVSSPYYEWPILSSGDVYSGGSPGADRVVFNENNQLAGVITHTGASGNNFVECT
Vmax, rate of iron oxidation: 1.05 µM/min
